Data published in patent publication US8119633B2, “Substituted sulfonamide compounds” (Gruenenthal GmbH, priority 2007, dated 2012).
Like-named read-outs stand apart in the source and are kept apart here.

Assays:
[1] = biological target: T1, human bradykinin receptor 1 (B1R) (Homo sapiens, UniProt P46663); assay: Functional study on the bradykinin receptor 1 (B1R), human: FLIPR Ca2+ influx assay; type: cell-based
T1 construct: expressed in transfected cells; host or cells: CHO K1 cells
T1 sequence (P46663 1-353): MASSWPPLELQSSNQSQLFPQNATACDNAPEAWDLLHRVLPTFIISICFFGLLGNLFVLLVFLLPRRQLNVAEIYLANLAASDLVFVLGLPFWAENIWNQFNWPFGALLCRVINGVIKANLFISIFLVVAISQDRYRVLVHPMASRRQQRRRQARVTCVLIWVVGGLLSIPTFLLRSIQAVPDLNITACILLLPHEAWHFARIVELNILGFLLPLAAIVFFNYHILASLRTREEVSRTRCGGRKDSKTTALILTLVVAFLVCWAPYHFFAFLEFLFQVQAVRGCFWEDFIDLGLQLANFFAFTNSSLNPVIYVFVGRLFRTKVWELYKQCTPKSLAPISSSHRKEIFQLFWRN
In short: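 CHO K1 cells stably expressing human B1R were loaded with Fluo-4, and Ca2+ fluorescence was read on FLIPR (ex 488/em 540 nm). Compound was added first (10 μM for % activation against Lys-Des-Arg9-bradykinin ≥0.5 nM). After 10-20 min, Lys-Des-Arg9-bradykinin was added at EC80 for % inhibition; IC50 came from concentration series, n=2-3, N≥2.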

[2] = biological target: T2, bradykinin receptor 1 (B1R) of the rat (Rattus norvegicus, UniProt P97583); assay: Functional study on the bradykinin receptor 1 (B1R), rat: FLIPR Ca2+ influx assay; type: cell-based
T2 construct: expressed in transfected cells; host or cells: CHO K1 cells
T2 sequence (P97583 1-337): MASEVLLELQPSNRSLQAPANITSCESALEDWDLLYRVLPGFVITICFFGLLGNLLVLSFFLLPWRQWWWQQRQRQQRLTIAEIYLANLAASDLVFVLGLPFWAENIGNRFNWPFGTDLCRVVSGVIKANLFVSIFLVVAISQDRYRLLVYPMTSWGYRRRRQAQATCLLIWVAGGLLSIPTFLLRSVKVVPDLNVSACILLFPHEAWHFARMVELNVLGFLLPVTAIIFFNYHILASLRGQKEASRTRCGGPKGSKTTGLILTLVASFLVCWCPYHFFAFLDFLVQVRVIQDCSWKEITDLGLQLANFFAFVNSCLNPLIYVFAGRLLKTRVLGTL
In short: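 CHO K1 cells stably expressing rat B1R, Fluo-4-loaded, read on FLIPR (ex 488/em 540 nm, peak fluorescence). Test substances added first (agonism vs 10 μM Des-Arg9-bradykinin), then after 10-20 min Des-Arg9-bradykinin at EC80; % inhibition and IC50 from concentration series, n=2-3, N≥2.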

human μ-opiate receptor = biological target: T3, human μ-opiate receptor (Homo sapiens, UniProt P35372); assay: Affinity for the human μ-opiate receptor ([3H]-naloxone displacement, SPA); conditions: test substance 1 μmol/l, inhibition of specific [3H]-naloxone binding, CHO-K1 receptor membrane preparation; for inhibition at 1 µM: read-out: μ-Opioid receptor [1 μM] % inhibition
T3 construct: purchased PerkinElmer Life Sciences, Zaventem, Belgium RB-HOM; host or cells: CHO-K1 cells (membrane preparation)
T3 sequence (P35372 whole entry): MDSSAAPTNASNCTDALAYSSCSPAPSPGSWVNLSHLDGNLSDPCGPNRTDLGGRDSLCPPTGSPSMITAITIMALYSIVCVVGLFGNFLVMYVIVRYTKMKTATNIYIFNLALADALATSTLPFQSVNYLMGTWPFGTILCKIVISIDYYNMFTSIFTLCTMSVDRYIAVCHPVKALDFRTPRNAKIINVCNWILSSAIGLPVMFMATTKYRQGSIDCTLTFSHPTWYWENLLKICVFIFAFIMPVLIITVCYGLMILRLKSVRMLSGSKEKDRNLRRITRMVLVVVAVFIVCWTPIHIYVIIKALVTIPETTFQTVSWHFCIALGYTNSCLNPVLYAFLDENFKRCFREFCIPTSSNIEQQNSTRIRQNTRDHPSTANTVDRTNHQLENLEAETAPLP
Procedure: Studies of the Effectiveness of the Compounds According to the Invention Method for determining the affinity for the human μ-opiate receptor
The receptor affinity for the human μ-opiate receptor is determined in a homogeneous batch on microtitre plates. To this end, serial dilutions of the substances to be tested are incubated for 90 minutes at room temperature with a receptor membrane preparation (15-40 μg of protein/250 μl of incubation batch) of CHO-K1 cells, which express the human μ-opiate receptor (RB-HOM receptor membrane preparation from PerkinElmer Life Sciences, Zaventem, Belgium), in the presence of 1 nmol/l of the radioactive ligand [^3H]-naloxone (NET719, PerkinElmer Life Sciences, Zaventem, Belgium) and 1 mg of WGA-SPA beads (wheatgerm agglutinin SPA beads from Amersham/Pharmacia, Freiburg, Germany) in a total volume of 250 μl. The incubation buffer used is 50 mmol/l of Tris-HCl supplemented with 0.06 wt. % bovine serum albumin. In order to determine non-specific binding, 100 μmol/l of naloxone is additionally added. When the ninety-minute incubation time has ended, the microtitre plates are centrifuged off for 20 minutes at 1000 g and the radioactivity is measured in a β-counter (Microbeta-Trilux, PerkinElmer Wallac, Freiburg, Germany). The percentage displacement of the radioactive ligand from its binding to the human μ-opiate receptor at a concentration of the test substances of 1 μmol/l is determined and stated as the percentage inhibition of specific binding. On the basis of the percentage displacement by different concentrations of the test substances, IC50 inhibitory concentrations, which effect 50% displacement of the radioactive ligand, are calculated. Ki values for the test substances are obtained by conversion by means of the Cheng-Prusoff equation.

[3] = test substance 10 μM, CHO K1 cells transfected with human B1R, Lys-Des-Arg9-bradykinin at EC80, Ca2+ influx (Fluo-4, FLIPR), read-out: B1R antagonism, human [10 μM] % inhibition
[4] = test substance 10 μM, CHO K1 cells transfected with rat B1R, Des-Arg9-bradykinin at EC80, Ca2+ influx (Fluo-4, FLIPR), read-out: B1R antagonism, rat [10 μM] % inhibition

Compound | inhibition at 10 µM [1, 3] [%] | inhibition at 10 µM [2, 4] [%] | inhibition at 1 µM (human μ-opiate receptor) [%] | other results
COc1cc(C)c(S(=O)(=O)N(C)CCCNC(=O)NC2CCC(C(c3ccccc3)N(C)C)CC2)c(C)c1C (stereo not drawn) [Example 1, N—(3-{3-[4-(Dimethylaminophenylmethyl)cyclohexyl]ureido}propyl)-4-methoxy-2,3,6,N-tetramethylbenzenesulfonamide] | 71.5 | 56 | 94 | –
O=C(CC1CCCN1S(=O)(=O)c1ccc(Cl)c(Cl)c1)NC1CCC(C(CCc2ccccc2)N2CCOCC2)CC1 (stereo not drawn) [Example 78, 2-(1-(3,4-dichlorophenylsulfonyl)pyrrolidin-2-yl)-N-(4-(1-morpholino-3-phenylpropyl)cyclohexyl)acetamide] | 78.3 | 10 | 18 | –
O=C(CC1CCCN1S(=O)(=O)c1ccc(Cl)c(Cl)c1)NCC1CCC(C(CCc2ccccc2)N2CCOCC2)CC1 (stereo not drawn) [Example 74, 2-[1-(3,4-dichloro-benzenesulfonyl)-pyrrolidin-2-yl]-N-[4-(1-morpholin-4-yl-3-phenyl-propyl)-cyclohexylmethyl]-acetamide] | 54.7 | 19 | 7 | –
O=C(CC1CCCN1S(=O)(=O)c1ccc(Cl)c(Cl)c1)NC1CCC(C(c2ccccc2)N2CCCC2)CC1 (stereo not drawn) [Example 105, 2-(1-(3,4-dichlorophenylsulfonyl)pyrrolidin-2-yl)-N-(4-(phenyl(pyrrolidin-1-yl)methyl)cyclohexyl)acetamide] | 99.5 | 24 | 76 | –
O=C(CC1C(=O)NCCN1S(=O)(=O)c1ccc(Cl)cc1Cl)NC1CCC(C(CCc2ccccc2)N2CCOCC2)CC1 (stereo not drawn) [Example 60, 2-[1-(2,4-dichloro-benzenesulfonyl)-3-oxo-piperazin-2-yl]-N-[4-(1-morpholin-4-yl-3-phenyl-propyl)-cyclohexyl]-acetamide] | 104 | 8 | 54 | –
1-(4-(1-(4-methylpiperazin-1-yl)-3-phenylpropyl)piperidin-1-yl)-2-(1-(3-(trifluoromethyl)phenylsulfonyl)piperidin-2-yl)ethanone [Example 112] | – | – | – | B1R antagonism, human [10 μM] % inhibition ([1]; test substance 10 μM, CHO K1 cells transfected with human B1R, Lys-Des-Arg9-bradykinin at EC80, Ca2+ influx (Fluo-4, FLIPR)): 90%; B1R antagonism, rat [10 μM] % inhibition ([2]; test substance 10 μM, CHO K1 cells transfected with rat B1R, Des-Arg9-bradykinin at EC80, Ca2+ influx (Fluo-4, FLIPR)): 61%; μ-Opioid receptor [1 μM] % inhibition (human μ-opiate receptor): 28%
N-(3-(4-((4-fluorophenyl)(4-methylpiperazin-1-yl)methyl)piperidin-1-yl)-3-oxo-1-phenylpropyl)naphthalene-2-sulfonamide [Example 117] | – | – | – | μ-Opioid receptor [1 μM] % inhibition (human μ-opiate receptor): 47%
CN(C)C(CCc1ccccc1)C1CCC(CCNC(=O)Cc2ccccc2N(C)S(=O)(=O)c2ccc(Cl)c(Cl)c2)CC1 (stereo not drawn) [Example 99, 2-(2-(3,4-dichloro-N-methylphenylsulfonamido)phenyl)-N-(2-(4-(1-(dimethylamino)-3-phenylpropyl)cyclohexyl)ethyl)acetamide] | 83.3 | -7 | – | –
COc1ccc(S(=O)(=O)N2CCc3ccccc3C2CC(=O)NCCC2CCC(C(c3ccc(F)cc3)N(C)C)CC2)cc1 (stereo not drawn) [Example 24, N-(2-{4-[dimethylamino-(4-fluoro-phenyl)-methyl]-cyclohexyl}-ethyl)-2-[2-(4-methoxy-benzenesulfonyl)-1,2,3,4-tetrahydro-isoquinolin-1-yl]-acetamide] | 82.2 | 67 | – | –
CN(C)C(c1ccc(F)cc1)C1CCC(CNC(=O)CC2c3ccccc3CCN2S(=O)(=O)c2ccc(Cl)c(Cl)c2)CC1 (stereo not drawn) [Example 31, 2-[2-(3,4-dichloro-benzenesulfonyl)-1,2,3,4-tetrahydro-isoquinolin-1-yl]-N-{4-[dimethylamino-(4-fluoro-phenyl)-methyl]-cyclohexylmethyl}-acetamide] | 54 | 48 | – | –
CN(C)C(c1ccccc1)C1CCC(NC(=O)c2ccccc2N(C)S(=O)(=O)c2ccc(Cl)c(Cl)c2)CC1 (stereo not drawn) [Example 11, 2-[(3,4-dichloro-benzenesulfonyl)-methyl-amino]-N-[4-(dimethylamino-phenylmethyl)-cyclohexyl]-benzamide] | – | – | – | inhibition at 10 µM ([1]; CHO-K1, read-out: B1R antagonism, human [10 μM] % inhibition): 85.5%; inhibition at 10 µM ([2]; CHO-K1, read-out: B1R antagonism, rat [10 μM] % inhibition): 107%
COc1ccc(S(=O)(=O)N2CCc3ccccc3C2CC(=O)NC2CCC(C(c3cccs3)N(C)C)CC2)cc1 (stereo not drawn) [Example 15, N-[4-(dimethylamino-thiophen-2-yl-methyl)-cyclohexyl]-2-[2-(4-methoxybenzenesulfonyl)-1,2,3,4-tetrahydro-isoquinolin-1-yl]-acetamide] | 44.6 | 57 | – | –
COc1ccc(S(=O)(=O)N2CCc3ccccc3C2CC(=O)NCC2CCC(C(CCc3ccccc3)N(C)C)CC2)cc1 (stereo not drawn) [Example 18, N-[4-(1-dimethylamino-3-phenyl-propyl)-cyclohexylmethyl]-2-[2-(4-methoxybenzenesulfonyl)-1,2,3,4-tetrahydro-isoquinolin-1-yl]-acetamide] | 58.8 | 73 | – | –
CN(C)C(c1ccccc1)C1CCC(CNC(=O)CC2c3ccccc3CCN2S(=O)(=O)c2ccc(Cl)c(Cl)c2)CC1 (stereo not drawn) [Example 29, 2-[2-(3,4-dichloro-benzenesulfonyl)-1,2,3,4-tetrahydro-isoquinolin-1-yl]-N-[4-(dimethylamino-phenyl-methyl)-cyclohexylmethyl]-acetamide] | 64.5 | 45 | – | –
CN(C)C(c1cccc(F)c1)C1CCC(CCNC(=O)CC2c3ccccc3CCN2S(=O)(=O)c2ccc(Cl)c(Cl)c2)CC1 (stereo not drawn) [Example 34, 2-[2-(3,4-dichloro-benzenesulfonyl)-1,2,3,4-tetrahydro-isoquinolin-1-yl]-N-(2-{4-[dimethylamino-(3-fluoro-phenyl)-methyl]-cyclohexyl}-ethyl)-acetamide] | 71.2 | 41 | – | –
CN(C)C(c1cccc(F)c1)C1CCC(CCNC(=O)c2ccccc2N(C)S(=O)(=O)c2ccc(Cl)c(Cl)c2)CC1 (stereo not drawn) [Example 44, 2-[(3,4-dichloro-benzenesulfonyl)-methyl-amino]-N-(2-{4-[dimethylamino-(3-fluoro-phenyl)-methyl]-cyclohexyl}-ethyl)-benzamide] | 46.5 | 18 | – | –
O=C1NCCN(S(=O)(=O)c2ccc(Cl)cc2Cl)C1CC(=O)N1CCC(C(c2ccccc2)N2CCOCC2)CC1 (stereo not drawn) [Example 62, 4-(2,4-dichloro-benzenesulfonyl)-3-{2-[4-(morpholin-4-yl-phenyl-methyl)piperidin-1-yl]-2-oxo-ethyl}-piperazin-2-one] | – | 27 | 4 | –
